Assay results: publication PMC7867015, “New Antiproliferative Triflavanone from Thymelaea hirsuta—Isolation, Structure Elucidation and Molecular Docking Studies” (Molecules, 2021)

Assays:
Assay type in all cases: cell-based
[1] = SRB cytotoxicity assay, HepG2 cells; details: human, read-out: In vitro cytotoxic effect IC50, HepG2
Experimental: (§1) The cell lines used in this study were purchased from the National Cancer Institute, Cairo, Egypt and maintained in Dulbecco’s Modified Eagle Medium/F-12 (DMEM⁄F12, Sigma-Aldrich, USA), supplemented with 2 mM L-glutamine (Lonza, Belgium) and 10% fetal bovine serum (FBS, Sigma-Aldrich, MO, USA), 1% penicillin-streptomycin (Lonza, Belgium). All cells were cultured following routine tissue culture work, and treated with serial concentrations of the compounds for 48 h. Absorbance was subsequently measured (at 570 nm) using ELISA microplate reader (BIO-RAD, model iMark, Japan). The viability was calculated relative to a control and the IC50 values were determined using the non-linear regression curve fit, as previously reported in [44]
(§2) The cytotoxic activities of the isolated compounds against HepG2, VERO E6, MCF-7 and HCT-116 cells were tested using the sulforhodamine-B (SRB) assay and the results are represented in figure e and Table 2.

[2] = SRB cytotoxicity assay, Vero normal cells; details: African green monkey, Vero E6 cells (normal cells), read-out: In vitro cytotoxic effect IC50, Vero
Experimental: as §1, §2

[3] = tested on: Vero cells; test: SRB cytotoxicity assay, Vero normal cells; details: 48 h, read-out: In vitro cytotoxic effect IC50, Vero
Experimental: as §1, §2

[4] = tested on: MCF-7 cells; test: SRB cytotoxicity assay, MCF-7 cells; details: Homo sapiens, MCF7, 48 h, read-out: IC50 against MCF-7 cells
Experimental: as §1, §2

[5] = tested on: HCT-116 cells; test: SRB cytotoxicity assay, HCT-116 cells; details: Homo sapiens, 48 h, read-out: IC50 against HCT-116 cells
Experimental: as §1, §2

[6] = tested on: MCF-7 cells; test: Annexin V/PI staining, flow cytometry (apoptosis); details: 48 h
Experimental: (§3) Apoptosis rate in cells was quantified using annexin V-FITC (BD Pharmingen, San Diego, CA, USA). MCF-7 cells were seeded into 6-well culture plates (3–5 × 10^5 cells/well) and incubated overnight. The cells were then treated with compound 1 for 48 h. Next, media supernatants and cells were collected and rinsed with ice-cold PBS. The next step was suspending the cells in 100 µL of annexin binding buffer solution 25 mM CaCl2, 1.4 M NaCl, and 0.1 M Hepes/NaOH, pH 7.4 and incubation with annexin V-FITC solution (1:100) and propidium iodide (PI) at a concentration of 10 µg/mL in the dark for 30 min. Stained cells were then acquired by a Cytoflex FACS machine. Data were analyzed using cytExpert software v.2.3.

[7] = tested on: MCF-7 cells; test: DNA content flow cytometry cell cycle analysis; details: 4.26 μM, 48 h
Experimental: Cell cycle analysis is an important test that determines the percentages of the cell population that are in each cell phase.. In this studyMCF-7 cancer cells were treated with compound 1, and then subjected to DNA flow cytometry to determine the stage where cell proliferation was arrested in the cell cycle.
as §3

[8] = tested on: BAX; test: ELISA assay for apoptotic marker BAX in MCF-7 cells; details: 4.26 μM, 48 h, control 43.6 pg/mL
From the text: (§4) To further investigate the apoptotic pathway of compound 1 in both untreated and treated MCF-7 cells, we investigated the enzymatic assays for apoptotic markers BAX (EIA-4487, DRG International®, Springfield, NJ, USA) and caspase-9 (EIA-4860, DRG International®, USA) as proapoptotic genes and BCL2 (Cat. No. 99-0042, Zymed®, CA, USA) as the anti-apoptotic gene, following the manufacturer’s instructions.

[9] = tested on: caspase-9; test: ELISA assay for apoptotic marker caspase-9 in MCF-7 cells; details: 4.26 μM, 48 h, control 5.16 pg/mL
From the text: as §4

[10] = tested on: BCL2; test: ELISA assay for anti-apoptotic marker BCL2 in MCF-7 cells; details: 4.26 μM, 48 h, control 7.59 ng/mL
From the text: as §4

Structure (SMILES) | IC50 at 48 h [1] | IC50 at 48 h [2] | IC50 [4] | IC50 [5] | other results
O=c1ccc2ccc(Oc3cc4cc(O)c(O)cc4oc3=O)cc2o1 [Compound 6, edgeworthin] | 32.5 µM | > 148 µM |  |  | 
O=C(O)c1ccc(O)cc1 [Compound 9, p-hydroxy benzoic acid] | 32.6 µM | 203 µM |  |  | 
O=C1c2c(O)cc(O)cc2OC(c2ccc(O)cc2)C1Oc1ccc(C2Oc3cc(O)cc(O)c3C(=O)C2C2C(=O)c3c(O)cc(O)cc3OC2c2ccc(O)cc2)cc1 (centres unmarked) [Compound 1, 2-(4-((5,7-dihydroxy-2-(4-hydroxyphenyl)-4-oxochroman-3-yl)oxy)phenyl)-5,5′,7,7′-tetrahydroxy-2′-(4 hydroxyphenyl)-[3,3′-bichromane]-4,4′-dione] | 8.6 µM | > 50 µM | 4.26 µM | 9.6 µM | IC50 [3]: 56.6 µM; apoptotic cell death increase ([6]; MCF-7 cells treated at IC50 = 4.26 μM, versus untreated control): 14.97 fold; Apoptosis Late ([6]; MCF-7 cells, 4.26 μM, control 0.23%): 22.52%; Apoptosis Early ([6]; MCF-7 cells, 4.26 μM, control 0.61%): 2.44%; Apoptosis Total (apoptosis ratio) ([6]; MCF-7 cells, 4.26 μM, control 2.71%): 40.57%; Pre-G1 cell population ([7]; control 2.71%): 40.57%; change in cell population in G0/G1, S or G2/M phase ([7]; versus control): no significant change; BAX level [8]: 362 pg/mL; caspase-9 level [9]: 21.14 pg/mL; BCL2 level [10]: 2.85 ng/mL
COc1cc2oc(=O)c(Oc3ccc4ccc(=O)oc4c3)cc2cc1O [Compound 3, rutamontine] | 29.8 µM | > 142 µM |  |  | 
COc1cc2cc(Oc3ccc4ccc(=O)oc4c3)c(=O)oc2cc1OC(C)=O [Compound 5, acetyldaphnoretin] | 9.4 µM |  | 46.4 µM | 24.4 µM | 
COc1cccc2c1C(=O)c1c(O)c3c(c(O)c1C2=O)C[C@@](O)(C(=O)CO)C[C@@H]3O[C@H]1C[C@H](N)[C@H](O)[C@H](C)O1 [Doxo, Doxorubicin, reference compound] | 7.7 µM | 45.8 µM |  |  | 
O=C(C=Cc1ccc(O)cc1)OCC1OC(Oc2c(-c3ccc(O)cc3)oc3cc(O)cc(O)c3c2=O)C(O)C(O)C1O (stereo not drawn) [Compound 8, trans-tiliroside] | 15.1 µM | 50.5 µM |  |  | 
COc1cc2cc(Oc3ccc4ccc(=O)oc4c3)c(=O)oc2cc1OC [Compound 2, daphnoretin methyl ether] | 12.3 µM |  | 66.1 µM | 101 µM | 
COc1cc2cc(O)c(=O)oc2cc1Oc1ccc2ccc(=O)oc2c1 [Compound 4, neodaphnoretin] | 27.2 µM | 124 µM |  |  | 
